≈ marks a conversion by molar mass, not a printed value. Read-outs that look alike come from different tables or passages of the source. Residues, ends and D or L forms follow the SMILES beside them. *: point of attachment. Myristoyl = CCCCCCCCCCCCCC(=O)*
How the values were obtained:
[1] = tested on: exofacial PS on C. neoformans cells; assay: AF350-annexin V flow cytometry assay; type: cell-based, Cryptococcus neoformans; conditions: 0.128 mg/mL peptide, 5*10^6 cell/mL, 20 min at 25°C, triplicate; control 0.2 ± 0.1%
Source text: We sought to determine whether the activities of the peptides were related to the lipid-flipping activity of the P4-ATPase. […] The intensity of the AF350-annexin V signal corresponds to concentration of PS on the exofacial side of the membrane. The propidium iodine signal corresponds to cell viability. […] Single cells were first selected and gated based on morphology to ensure homogeneity among the cell population (4A, 4B). We examined cells with low propidium iodine intensity (PI-A < 9 RU) and high AF350-annexin V intensity (Annexin V-A > 9 RU) (4C, 4D). Under these gating parameters there should be, respectively, low nonspecific cell death and high exofacial PS.
Stock microbes were defrosted from the –80°C freezer and were passed twice for 48 h each in YPD media. The YPD media was removed by spinning down and the supernatant was decanted. Pelletized cells were resuspended in 1 mL PBS media and washed for 5 min with incubation at 25°C and 250 RPM. Washed cells were spun down again and suspended in 1 mL of PBS solution. cells were diluted 20-fold into 1 mL fungal working solution in an eppendorf. Cell concentration was quantified via comparison to 1X McFarlain’s standard on a plate reader using the absorbance value at 530 nm. An aliquot of 1*10^6 cells in 100 μL was created (1*10^7cell/mL). A 100 μL aliquot of peptide working solution at 0.256 mg/mL was added to the cell suspension for final operating parameters of 200 μL, 0.128 mg/mL peptide, and 5*10^6cell/mL. The cells were incubated for 20 min at 25°C and 250RPM. Baseline and experimental samples were prepared in triplicate. Cells were stained using an operating concentration of 0.001 mg/mL Propidium Iodine (PI) and a 40-fold dilution of Alexa Fluor 350 labeled annexin V as per manufactures instructions. After staining the cells, samples were spun down and supernatant decanted. Cells were then fixed in 4% formaldehyde for 5 min. Fixed cells were spun down and supernatant decanted and resuspended in 400 μL 1% formaldehyde for flowcytometry. Samples were collected at a slow flow rate on a MACS Quant 10 device (Miltenyi Biotech, Auburn, CA) with 50,000 events collected per injection.

[2] = tested on: C. neoformans H99; type: cell-based, Cryptococcus neoformans
Method: (§1) Again, 200 μL was the operating volume, 500CFU per well, 2.5*10^3 cell/mL. Plates were incubated for 48 h at 37°C and read thereafter. The Fractional Inhibitory Concentration Index were calculated in Equation 1: FICIndex=FICA/MICA+FICB/MICB

[3] = tested on: ΔCDC50 mutant strain; type: cell-based, Cryptococcus neoformans
Method: as §1

[4] = tested on: human red blood cells (RBCs); assay: Hemolysis assay; type: cell-based; conditions: human RBC, 1 h at 37°C, relative to Triton X-100
Method: Operating conditions were 100 μL and 2.5*10^8cell/mL. […] The plate was incubated at 37°C for 1 h. […] The scans were run in triplicate.

[5] = tested on: C. neoformans wild-type strain H99; assay: microbe, parasite or virus in culture; type: cell-based, Cryptococcus neoformans; conditions: for MIC: Cryptococcus neoformans
Method: (§2) Our assays followed standard CLSI protocol for broth microdilution assays using yeasts ([32]). Microbes were passaged in YPD media at 37°C with mixing for 2 days before harvesting with an inoculation loop to prepare monocultures on Sabouraud Dextrose Agar (SDA) plates. Monocultures on SDA plates were incubated for 2 days at 37°C before harvesting cells for microdilution assays. RPMI media (100 μL) was charged to each of the 96 wells in a 96-well plate, with an additional 100 μL in the first column. Peptide-DMSO solution (4 μL) at 12.8 mg/mL was charged to each of the wells in the first column. The 100 μL was serially diluted by a factor of 2 from the first column to the 11th column. Microbe inoculant was then prepared. An inoculation loop was used to transfer 1–3 colonies of cells to 1 mL phosphate buffer solution (PBS). The PBS and microbe solution was made uniform by vortex mixing. Cell concentration was computed by comparing the absorbance at 530 nm to 1x McFarland standard solution and multiplying the resulting ratio by 10^7 cell/mL conversion factor. Plate inoculant was prepared by diluting the PBS microbe solution to 5000 cell/mL, in RPMI media. A 100 μL aliquot of cells was transferred to each of the wells on the plate other than column 11 for the no growth control. The operating volume was 200 μL, with 500 CFU per well for a final concentration of 2.5*10^3 cells/mL. Inoculated plates were incubated for 48 h at 37°C and read at 24 and 48 h ([33]).

[6] = tested on: C. neoformans H99; assay: SDS and plate spotting assay; type: cell-based, Cryptococcus neoformans; conditions: H99 pretreated with 128 μg/mL peptide for 1 h at 30°C; compared to untreated or DMSO controls
Method: Briefly, cultures of C. neoformans were grown in YPD and then spotted on YPD plates containing 0.03% SDS.
To test cell integrity, C. neoformans strains from 3 mL YPD overnight cultures were washed, resuspended, and serially diluted (1:10) in dH2O and spotted (5 μl) on YPD agar plates or YPD agar plates containing 0.03% SDS and incubated for 2 days at 30°C and 37°C. […] Of each strain, yeast cells were inoculated into liquid YPD with 128 μg/mL or 64 μg/mL peptide and co-incubated for 1h at 30°C. And then, 10-fold serial dilutions were prepared, and 5 μl of each was spotted on YPD and YPD agar plates containing 0.03% SDS. The results were photographed after a 48 h of incubation. Their growth was determined by serial dilutions and the fungal colonies were assessed by CFU numbers.

[7] = tested on: cdc50Δ mutant strain; conditions: cited from earlier work
Source text: (§3) Recently, mutation studies discovered an essential role of Cryptococcus lipid flippase in echinocandin resistance ([6]). The lipid flippase is composed of the core P4 type ATPase (P4-ATPase) and a regulatory subunit Cdc50 ([7]). […] This loop region of Cdc50 has been reported in other organisms to bind to the P4-ATPase to regulate flippase activity ([8]).

[8] = tested on: C. neoformans wild-type strain H99; conditions: cited from earlier work
Source text: as §3

[9] = tested on: cdc50Δ mutant strain; type: cell-based, Cryptococcus neoformans; conditions: Table S1, drug alone
Method: as §2

Structure (SMILES) | percentage of cells with low propidium iodine (PI-A < 9 RU) and high AF350-annexin V intensity (Annexin V-A > 9 RU) [1] | MIC (FIC) of caspofungin in the presence of the AW9-Ma peptide ([2]; C. neoformans wild type, combination with caspofungin) | FIC H99 Caspofungin ([2]; Table S1, concentration of caspofungin in combination with the peptide, H99) | FIC H99 Peptide ([2]; Table S1, concentration of peptide in combination with caspofungin, H99) | FIC ΔCDC50 Caspofungin ([3]; Table S1, concentration of caspofungin in combination with the peptide) | FIC ΔCDC50 Peptide ([3]; Table S1, concentration of peptide in combination with caspofungin) | hemolysis at the concentrations needed for synergy [4] | hemolytic activity (fractional lysis) ([4]; varying concentrations, absorbance 410 nm) | MIC H99 ([5]; Table S1, drug alone, wild type H99) | growth in terms of CFU on agar medium with 0.03% SDS [6] | MIC value of caspofungin [7] | MIC value of caspofungin [8] | MIC ΔCDC50 [9] | MIC ([5]; Table S1, drug alone, wild type H99, read-out: MIC H99) | MIC ([5]; drug alone, H99 wild type, CLSI broth microdilution, RPMI, 2.5*10^3 cells/mL, 37°C, read at 24 and 48 h, read-out: MIC)
CCCCCCCCCCCCCC(=O)N[C@@H](Cc1c[nH]c2ccccc12)C(=O)NCC(=O)NCC(=O)N[C@H](C(=O)N[C@@H](CCCCN)C(=O)N[C@@H](CCCCN)C(=O)N[C@@H](CC(N)=O)C(=O)N[C@@H](Cc1ccc(O)cc1)C(=O)N[C@@H](C)C(=O)O)[C@@H](C)CC [AW9-Ma] (Myristoyl-WGGIKKNYA-OH) | 67.6% ± 2.3 | 4 µg/mL | 4 µg/mL | 16 µg/mL | 0.125 µg/mL | 0.125 µg/mL | low amounts of hemolysis | concentrate-dependent minimal amount of hemolysis | 64 µg/mL (≈ 51.3 µM) | significantly reduced growth |  |  |  |  | 
CC[C@H](C)C[C@H](C)CCCCCCCCC(=O)N[C@H]1C[C@@H](O)[C@@H](NCCN)NC(=O)[C@@H]2[C@@H](O)CCN2C(=O)[C@H]([C@H](O)CCN)NC(=O)[C@H]([C@H](O)[C@@H](O)c2ccc(O)cc2)NC(=O)[C@@H]2C[C@@H](O)CN2C(=O)[C@H]([C@@H](C)O)NC1=O [caspofungin, reference compound] |  |  |  |  |  |  |  |  |  |  | 4 µg/mL | 16 µg/mL | 4 µg/mL (≈ 3.66 µM) | 16 µg/mL (≈ 14.6 µM) | 16 µg/mL (≈ 14.6 µM)
